Like-named read-outs stand apart in the source and are kept apart here.
How the values were obtained:
[1] = tested on: AMPK; experiment: Cellular thermal shift assay (CTSA) of AMPK protein, Western blot; format: binding, human; settings: cells treated with compound; AMPK protein alone Tm 50° C.; FIG. 1
Method: In order to examine whether or not the compound of Production Example 6 and 13 compounds, including the compounds of Production Examples 1 to 5 and 8 to 15 having a similar structure (YE-01, 02, 03, 04, 05, 08, 09, 10, 11, 12, 13, 14 and 15), bind to the AMP binding site of AMPK, cellular thermal shift assay (CTSA) was performed. Specifically, the cultured human breast cancer-derived cell line (BT549 or MDA-MB-231 cell line) was detached from the culture dish using trypsin. The detached cell line was diluted in PBS, and the same amount of the cells were dispensed in each tube for PCR and heated for 3 minutes at a temperature of room temperature to 65° C. After completion of the heating, protein was isolated from the cell line using liquid nitrogen, and Western blot analysis was performed to confirm the temperature at which AMPK would be denatured by heat.

[2] = tested on: 4T1 cell line; experiment: Cell viability assay (WST-1); format: cell-based; settings: Mus musculus
Method: (§1) [4-1-1] The breast cancer cell line of Experimental Method 1 was treated with 5-aminoimidazole-4-carboxamide ribonucleotide (AICAR) (which is not the compound of Production Example 6) or the compound of Production Example 6 at a concentration of 0 to 30 μM, and then cultured for 24 hours, 48 hours and 72 hours. Thereafter, the cultured cells were treated with WST-1 reagent, and then the absorbance at a wavelength of 450 nm was measured. Here, the WST-1 reagent allows the cell viability to be measured by changing the color of the culture medium depending on the level of the mitochondrial dehydrogenase present in the cell.
(§2) [4-1-2] The breast cancer cell line 4T1, BT549 or MDA-MB-231 of Experimental Method 1 was treated with each of the compound of Production Example 6 and 13 compounds, including the compounds of Production Examples 1 to 5 and 8 to 15 having a similar structure (YE-01, 02, 03, 04, 05, 08, 09, 10, 11, 12, 13, 14 and 15), at a concentration of 0 to 50 μM, and then cultured for 24 hours. Each of three types of gastric cancer cell lines, brain cancer cell lines and pancreatic cancer cell lines was treated with the compound of Production Example 6 or the compound of Production Example 8 having a similar structure at a concentration of 0 to 50 μM, and then cultured for 24 hours. Thereafter, the cultured cells were treated with WST-1 reagent according to the manufacturer's instruction, and after a certain time, the absorbance at a wavelength of 450 nm was measured. Here, the WST-1 reagent allows the cell viability to be measured by changing the color of the culture medium depending on the level of the mitochondrial dehydrogenase present in the cell.

[3] = tested on: BT549 cell line; experiment: Cell viability assay (WST-1); format: cell-based; settings: Homo sapiens
Method: as §1, §2

[4] = tested on: MDA-MB-231 cell line; experiment: Cell viability assay (WST-1); format: cell-based; settings: Homo sapiens, MDA-MB-231, 24 h, read-out: cancer cell viability inhibited
Method: as §1, §2

[5] = tested on: MDA-MB-231 cell line; experiment: Clonogenic assay; format: cell-based, human; settings: MDA-MB-231, 10 μM; FIG. 2B
Method: The breast cancer cell line of Experimental Method 1 was dispensed into a 6-well plate at a density of 1 to 2×10^3 cells/well. After the cells were sufficiently attached, they were treated with the compound of Production Example 6 at a concentration of 0 to 30 μM and cultured for 10 days to 14 days. Next, the cultured cells were fixed with 4% formaldehyde and stained with 1% crystal violet, and the colonies were counted under a microscope.

[6] = tested on: p-AMPK (Thr172); experiment: AMPK activation by p-AMPK (Thr172) Western blot in MDA-MB-231 cells; format: cell-based, human; settings: 24 hours
Method: [3-1] The breast cancer cell line of Experimental Method 1 above was treated with the compound of Production Example 6 at a concentration of 0 to 30 μM, and then cultured for 24 hours. Thereafter, the cells were harvested and lysed in RIPA buffer, and the protein was electrophoresed by SDS-PAGE, and then the expression level of the protein was analyzed using antibodies specific for AMPK and phospho-AMPK (Thr172). GAPDH or β-actin was used as a loading control for protein quantification.
(§3) [3-2] The three breast cancer cell lines (4T1, BT549, and MDA-MB-231) of Experimental Method 1 were treated with each of the compound of Production Example 6 and 13 compounds, including the compounds of Production Examples 1 to 5 and 8 to 15 having a similar structure (YE-01, 02, 03, 04, 05, 08, 09, 10, 11, 12, 13, 14 and 15), at a concentration of 10 μM, and then cultured for 24 hours. In addition, each of two types of gastric cancer cell lines, brain cancer cell lines and pancreatic cancer cell lines was treated with the compound of Production Example 6 or the compound of Production Example 8 having a similar structure at a concentration of 10 μM and then cultured for 12 hours. Thereafter, the cells were harvested and lysed in RIPA buffer, and the protein was electrophoresed by SDS-PAGE, and then the expression level of the protein was analyzed using antibodies specific for AMPK and phospho-AMPK (Thr172). GAPDH or β-actin was used as a loading control for protein quantification.

[7] = tested on: p-AMPK (Thr172); experiment: AMPK activation by p-AMPK (Thr172) Western blot in brain cancer cell lines; format: cell-based, human; settings: 10 μM, 12 hours, compared to untreated group
Method: as §3

[8] = tested on: MDA-MB-231 cell line; experiment: Flow cytometry assay (Annexin V / PI); format: cell-based, human; settings: MDA-MB-231, 0 to 30 μM, 24 hours; FIG. 6
Method: The breast cancer cell line of Experimental Method 1 was treated with the compound of Production Example 6 at a concentration of 0 to 30 μM and cultured for 24 hours. Thereafter, the cultured cells were detached by trypsin, and then double-stained with Annexin V; recognizing apoptosis) and PI (propidium iodide; recognizing cell necrosis), and then the pattern and level of apoptosis were measured using flow cytometry.

[9] = tested on: EMT protein markers α-SMA, Vimentin, ZEB-1 and Slug; experiment: EMT protein marker Western blot, TGF-β1-treated MDA-MB-231 cells; format: cell-based, human; settings: MDA-MB-231, with TGF-β1; FIG. 7A
Method: The culture medium of the breast cancer cell line of Experimental Method 1 was replaced with a serum-free medium. Then, the cells were treated with 2 ng/mL of TGF-β1 and the compound of Preparation Example 6 and cultured for 20 to 24 hours. Thereafter, as described in Experimental Method 3, the expression level of the protein was measured using an antibody specific for the EMT-related protein.

## COc1ccc(OC)c(/C=C/C(=O)c2ccc(NS(=O)(=O)c3ccc(Cl)cc3)cc2)c1 [Production Example 6, (E)-4-chloro-N-(4-(3-(2,5-dimethoxyphenyl)acryloyl)phenyl)benzenesulfonamide]
[1]
  Tm value of AMPK protein: 55 °C
[2]; 4T1, 24 h, read-out: cancer cell viability inhibited
  cytotoxicity at 10 µM: ≥ 50%
[2]; 4T1, read-out: cell viability inhibited
  cytotoxicity at 10 µM: ≥ 50%
[3]; BT-549, 24 h, read-out: cancer cell viability inhibited
  cytotoxicity at 10 µM: ≥ 50%
[3]; BT-549, read-out: cell viability inhibited
  cytotoxicity at 10 µM: ≥ 50%
[4]
  cytotoxicity at 10 µM: ≥ 50%
[5]
  colony formation: significantly reduced
[6]; MDA-MB-231, 0 to 30 μM, FIG. 5
  phospho-AMPK protein: increased in a concentration-dependent manner
[6]; MDA-MB-231, 10 μM, FIG. 3B
  p-AMPK level: effectively increased
[7]
  expression of p-AMPK: increased
[8]
  cells stained with annexin V or PI: increased in a concentration-dependent manner
[9]
  Slug protein: decreased
  Vimentin protein: decreased
  ZEB-1 protein: decreased
  α-SMA protein: decreased

— patent US12447137B2, “Composition for prevention, amelioration, or treatment of cancer” (EWHA UNIVERSITY—INDUSTRY COLLABORATION FOUNDATION, priority 2019, dated 2025)
